Reference: patent US20060276485A1, “Substituted piperidine and piperazine derivatives as melanocortin-4 receptor modulators” (priority 2003, published 2006)
pEC50, pIC50, pKi: −log10 of the molar value. Entries after “also recorded” stand apart in the source; their conditions may differ. Where two headings read alike, the source gives them in different places.

Experiments:
[1] = Spontaneous feeding paradigm: food intake in rats; format: in vivo, male Wistar rats; conditions: for increase in cumulative food intake: compared to vehicle; for activity in the spontaneous feeding paradigm: significant increase in food intake at dose of 3 to 30 mg/kg p.o.
Procedure: Food intake in rats is measured after i.p. or p.o. administration of the test compound (see e.g. Chen, A. S. et al. Transgenic Res 2000 April 9(2):145-54).
Selected Examples of the present invention were active in the rat model at 3, 10 or 30 mg/kg after i.p. and p.o. administration of the test compound, respectively, using male Wistar rats (n=4).

[2] = target: T1, human melanocortin-4 receptor (hMC4-R) (Homo sapiens, UniProt P32245); experiment: Membrane binding assay: competition with fluorescence labeled NDP-alpha-MSH, fluorescence polarization
T1 construct: expressed in transfected cells; host or cells: HEK293 cells
Procedure: A membrane binding assay is used to identify competitive inhibitors of fluorescence labeled NDP-alpha-MSH binding to HEK293 cell membrane preparations expressing human melanocortin receptors.
The test compound or unlabeled NDP-alpha-MSH is dispensed at varying concentrations to a 384 well microtiter plate. Fluorescence labeled NDP-alpha-MSH is dispensed at a single concentration, followed by addition of membrane preparations. The plate is incubated for 5 h at room temperature.
The degree of fluorescence polarization is determined with a fluorescence polarization microplate reader.

[3] = target: T1, human melanocortin-4 receptor (hMC4-R); experiment: Functional cellular cAMP assay in HEK293 cells, fluorescence polarization; format: cell-based
Procedure: A functional cellular assay, based on competition between unlabeled CAMP and a fixed quantity of fluorescence labeled CAMP for a limited number of binding sites on a CAMP specific antibody, is used to discriminate melanocortin receptor agonists from antagonists by fluorescence polarization.
HEK293 cells expressing one of the human melanocortin receptors are transferred to 384 well microtiter plates, an appropriate amount of CAMP antibody is added, followed by the addition of different concentrations of the test compound to effect cAMP production. Cells are lysed and a fluorescence labeled cAMP conjugate is dispensed. The plate is read on a fluorescence polarization microplate reader and the amount of cAMP produced as a response to a test compound is compared to the production of CAMP resulting from stimulation with NDP-alpha-MSH. […]

[4] = target: T2, melanocortin-4 receptor (Homo sapiens, UniProt P32245); conditions: J. Med. Chem. 2004, 47, 744-755; read-out: melanocortin-4 receptor binding Ki; cited from earlier work
[5] = target: T2, melanocortin-4 receptor; conditions: cited from earlier work; for pEC50: read-out: melanocortin-4 receptor activation EC50
[6] = Bioorg. Med. Chem. Lett. 2003, 13, 3793-3796

T1 sequence (P32245 whole entry): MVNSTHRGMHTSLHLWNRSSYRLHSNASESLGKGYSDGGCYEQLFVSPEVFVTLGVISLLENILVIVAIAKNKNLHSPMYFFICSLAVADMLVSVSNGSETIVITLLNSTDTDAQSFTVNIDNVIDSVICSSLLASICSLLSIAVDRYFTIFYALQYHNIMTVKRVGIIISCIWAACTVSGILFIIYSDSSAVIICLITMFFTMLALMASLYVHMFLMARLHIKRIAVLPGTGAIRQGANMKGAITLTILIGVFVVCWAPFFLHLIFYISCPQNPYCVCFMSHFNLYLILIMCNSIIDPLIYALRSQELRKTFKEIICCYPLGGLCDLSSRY
T2 sequence (P32245 whole entry): as above

Compound	pIC50 [2]	% activation functional assay ([3]; relative to NDP-alpha-MSH)	further results
COc1ccc2oc(C(=O)N[C@@H](Cc3ccc(Cl)cc3)C(=O)N3CCC(c4ccccc4CN4CCCC4=O)CC3)cc(=O)c2c1 [Example 17]	–	–	increase in cumulative food intake ([1]; 10 mg/kg p.o., 2 hours following administration): 3100%; increase in cumulative food intake ([1]; 10 mg/kg p.o., 4 hours following administration): 540%; activity in the spontaneous feeding paradigm [1]: active
CS(=O)(=O)Nc1ccccc1N1CCN(C(=O)[C@@H](Cc2ccc(Cl)cc2)NC(=O)[C@H]2Cc3ccccc3CN2)CC1 [WO03009850 (example 1)]	6.30	96%	pEC50 [3]: 5.43; pKi [4]: 6.66; stimulation of melanocortin-4 receptor [5, 6]: 100%; pEC50 [5, 6]: 6.42; pEC50 ([5]; J. Med. Chem. 2004, 47, 744-755): 7.80
O=C(N[C@H](Cc1ccc2ccccc2c1)C(=O)N1CCC(c2ccccc2CN2CCCC2=O)CC1)c1cc(=O)c2ccccc2o1 [Example 91]	6.92	does not activate; also recorded: no activation	–
O=C(N[C@@H](Cc1ccc(Cl)cc1)C(=O)N1CCC(c2ccccc2CN2CCCCC2=O)CC1)c1cc(=O)c2ccccc2o1 [Example 92]	6.70	does not activate; also recorded: no activation	–
O=C(N[C@H](Cc1ccc2ccccc2c1)C(=O)N1CCN(c2ccccc2CN2CCCC2=O)CC1)c1cc(=O)c2ccccc2o1 [Example 267]	7.00	does not activate; also recorded: no activation	–
O=C(N[C@@H](Cc1ccc(Cl)cc1)C(=O)N1CCC(c2ccccc2CN2CCCC2=O)CC1)c1cc(=O)c2ccccc2o1 [Example 1]	6.70	does not activate; also recorded: no activation	increase in cumulative food intake ([1]; 30 mg/kg p.o., 4 hours following administration): 159%; increase in cumulative food intake ([1]; 30 mg/kg p.o., 6 hours following administration): 131%; increase in cumulative food intake ([1]; 30 mg/kg p.o., 7 hours following administration): 148%; activity in the spontaneous feeding paradigm [1]: active
O=C(N[C@H](Cc1ccc(Cl)cc1)C(=O)N1CCN(c2ccccc2CN2CCCC2=O)CC1)c1cc(=O)c2ccccc2o1 [Example 182]	7.21	–	% activation functional assay ([3]; at 10 μM): 15%@10 μM; % activation functional assay ([3]; at 10 μM, listed as example 182): little or no activation; increase in cumulative food intake ([1]; 3 mg/kg p.o., 2 hours following administration): 273%; increase in cumulative food intake ([1]; 3 mg/kg p.o., 4 hours following administration): 204%; increase in cumulative food intake ([1]; 3 mg/kg p.o., 6 hours following administration): 156%; increase in cumulative food intake ([1]; 3 mg/kg p.o., 7 hours following administration): 197%; activity in the spontaneous feeding paradigm [1]: active
O=C(N[C@H](Cc1ccc(Cl)cc1)C(=O)N1CCC(c2ccccc2CN2CCCCCC2=O)CC1)c1cc(=O)c2ccccc2o1 [Example 180]	7.33	does not activate; also recorded: no activation	–
O=C(N[C@@H](Cc1ccc(Cl)cc1)C(=O)N1CCC(c2ccccc2CN2CCCCCC2=O)CC1)c1cc(=O)c2ccccc2o1 [Example 179]	6.30	does not activate; also recorded: no activation	–
O=C(N[C@H](Cc1ccc(Cl)cc1)C(=O)N1CCC(c2ccccc2CN2CCCC2=O)CC1)c1cc(=O)c2ccccc2o1 [example 2]	7.44	43%	pEC50 [3]: 5.24
O=C(N[C@H](Cc1ccc(Cl)cc1)C(=O)N1CCC(c2ccccc2CN2CCC2=O)CC1)c1cc(=O)c2ccccc2o1 [Example 178]	6.70	does not activate; also recorded: no activation	–
O=C(N[C@H](Cc1ccc(Cl)cc1)C(=O)N1CCC(c2ccccc2CN2CCCCC2=O)CC1)c1cc(=O)c2ccccc2o1 [Example 93]	7.29	does not activate; also recorded: no activation	–
O=C(N[C@@H](Cc1ccc(Cl)cc1)C(=O)N1CCN(c2ccccc2CN2CCCC2=O)CC1)c1cc(=O)c2ccccc2o1 [Example 181]	6.11	does not activate; also recorded: no activation	–
